± gives the expanded uncertainty stated by the source.
Assay: xn = mol fraction of the nth substance listed
Conditions: Liquid, Vibrating tube method

Question: What does the source list for CCCCCCCCCC [decane] + CCO?
Answer: mass density (303.2 K, 100 kPa, x2 = 0.25): 726.4 ± 0.3 kg/m3; mass density (303.2 K, 100 kPa, x2 = 0.5): 732.8 ± 0.3 kg/m3; mass density (303.2 K, 100 kPa, x2 = 0.75): 746.3 ± 0.3 kg/m3; mass density (303.2 K, 1000 kPa, x2 = 0.25): 727.2 ± 0.3 kg/m3; mass density (303.2 K, 1000 kPa, x2 = 0.5): 733.7 ± 0.3 kg/m3; mass density (303.2 K, 1000 kPa, x2 = 0.75): 747.2 ± 0.3 kg/m3; mass density (303.2 K, 2000 kPa, x2 = 0.25): 728 ± 0.3 kg/m3; mass density (303.2 K, 2000 kPa, x2 = 0.5): 734.5 ± 0.3 kg/m3; mass density (303.2 K, 2000 kPa, x2 = 0.75): 748.1 ± 0.3 kg/m3; mass density (303.2 K, 3000 kPa, x2 = 0.25): 728.8 ± 0.3 kg/m3; mass density (303.2 K, 3000 kPa, x2 = 0.5): 735.4 ± 0.3 kg/m3; mass density (303.2 K, 3000 kPa, x2 = 0.75): 749 ± 0.3 kg/m3; mass density (303.2 K, 4000 kPa, x2 = 0.25): 729.6 ± 0.3 kg/m3; mass density (303.2 K, 4000 kPa, x2 = 0.5): 736.3 ± 0.3 kg/m3; mass density (303.2 K, 4000 kPa, x2 = 0.75): 749.8 ± 0.3 kg/m3; mass density (303.2 K, 5000 kPa, x2 = 0.25): 730.4 ± 0.4 kg/m3; mass density (303.2 K, 5000 kPa, x2 = 0.5): 737.1 ± 0.3 kg/m3; mass density (303.2 K, 5000 kPa, x2 = 0.75): 750.7 ± 0.3 kg/m3; mass density (303.2 K, 6000 kPa, x2 = 0.25): 731.3 ± 0.4 kg/m3; mass density (303.2 K, 6000 kPa, x2 = 0.5): 738 ± 0.4 kg/m3; mass density (303.2 K, 6000 kPa, x2 = 0.75): 751.6 ± 0.3 kg/m3; mass density (303.2 K, 7000 kPa, x2 = 0.25): 732.1 ± 0.4 kg/m3; mass density (303.2 K, 7000 kPa, x2 = 0.5): 738.8 ± 0.4 kg/m3; mass density (303.2 K, 7000 kPa, x2 = 0.75): 752.4 ± 0.3 kg/m3; mass density (303.2 K, 8000 kPa, x2 = 0.25): 732.9 ± 0.4 kg/m3; mass density (303.2 K, 8000 kPa, x2 = 0.5): 739.7 ± 0.4 kg/m3; mass density (303.2 K, 8000 kPa, x2 = 0.75): 753.3 ± 0.3 kg/m3; mass density (303.2 K, 9000 kPa, x2 = 0.25): 733.7 ± 0.4 kg/m3; mass density (303.2 K, 9000 kPa, x2 = 0.5): 740.5 ± 0.4 kg/m3; mass density (303.2 K, 9000 kPa, x2 = 0.75): 754.1 ± 0.3 kg/m3; mass density (303.2 K, 10000 kPa, x2 = 0.25): 734.5 ± 0.4 kg/m3; mass density (303.2 K, 10000 kPa, x2 = 0.5): 741.3 ± 0.4 kg/m3; mass density (303.2 K, 10000 kPa, x2 = 0.75): 755 ± 0.3 kg/m3; mass density (323.2 K, 100 kPa, x2 = 0.25): 709.6 ± 0.3 kg/m3; mass density (323.2 K, 100 kPa, x2 = 0.5): 715.8 ± 0.3 kg/m3; mass density (323.2 K, 100 kPa, x2 = 0.75): 728.5 ± 0.3 kg/m3; mass density (323.2 K, 1000 kPa, x2 = 0.25): 710.3 ± 0.3 kg/m3; mass density (323.2 K, 1000 kPa, x2 = 0.5): 716.7 ± 0.3 kg/m3; mass density (323.2 K, 1000 kPa, x2 = 0.75): 729.5 ± 0.3 kg/m3; mass density (323.2 K, 2000 kPa, x2 = 0.25): 711.2 ± 0.3 kg/m3; mass density (323.2 K, 2000 kPa, x2 = 0.5): 717.7 ± 0.3 kg/m3; mass density (323.2 K, 2000 kPa, x2 = 0.75): 730.6 ± 0.3 kg/m3; mass density (323.2 K, 3000 kPa, x2 = 0.25): 712.2 ± 0.3 kg/m3; mass density (323.2 K, 3000 kPa, x2 = 0.5): 718.6 ± 0.3 kg/m3; mass density (323.2 K, 3000 kPa, x2 = 0.75): 731.5 ± 0.3 kg/m3; mass density (323.2 K, 4000 kPa, x2 = 0.25): 713.1 ± 0.4 kg/m3; mass density (323.2 K, 4000 kPa, x2 = 0.5): 719.6 ± 0.3 kg/m3; mass density (323.2 K, 4000 kPa, x2 = 0.75): 732.6 ± 0.3 kg/m3; mass density (323.2 K, 5000 kPa, x2 = 0.25): 714 ± 0.4 kg/m3; mass density (323.2 K, 5000 kPa, x2 = 0.5): 720.5 ± 0.3 kg/m3; mass density (323.2 K, 5000 kPa, x2 = 0.75): 733.5 ± 0.3 kg/m3; mass density (323.2 K, 6000 kPa, x2 = 0.25): 714.9 ± 0.4 kg/m3; mass density (323.2 K, 6000 kPa, x2 = 0.5): 721.5 ± 0.3 kg/m3; mass density (323.2 K, 6000 kPa, x2 = 0.75): 734.5 ± 0.3 kg/m3; mass density (323.2 K, 7000 kPa, x2 = 0.25): 715.8 ± 0.4 kg/m3; mass density (323.2 K, 7000 kPa, x2 = 0.5): 722.4 ± 0.3 kg/m3; mass density (323.2 K, 7000 kPa, x2 = 0.75): 735.4 ± 0.3 kg/m3; mass density (323.2 K, 8000 kPa, x2 = 0.25): 716.8 ± 0.4 kg/m3; mass density (323.2 K, 8000 kPa, x2 = 0.5): 723.3 ± 0.4 kg/m3; mass density (323.2 K, 8000 kPa, x2 = 0.75): 736.4 ± 0.3 kg/m3; mass density (323.2 K, 9000 kPa, x2 = 0.25): 717.7 ± 0.4 kg/m3; mass density (323.2 K, 9000 kPa, x2 = 0.5): 724.2 ± 0.4 kg/m3; mass density (323.2 K, 9000 kPa, x2 = 0.75): 737.4 ± 0.4 kg/m3; mass density (323.2 K, 10000 kPa, x2 = 0.25): 718.6 ± 0.4 kg/m3; mass density (323.2 K, 10000 kPa, x2 = 0.5): 725.2 ± 0.4 kg/m3; mass density (323.2 K, 10000 kPa, x2 = 0.75): 738.4 ± 0.4 kg/m3

From the NIST ThermoML archive (doi:10.1016/j.jct.2012.11.017)
